pKi: −log10 of the molar value. Several values for one entry are separate records, joined by “and”; a condition that tells them apart may be missing. Identical values can stand only once.
How the values were obtained:
Format in all cases: biochemical
[1] = target: c-Met (Homo sapiens, UniProt P08581); test: Ki determination for the inhibition of c-Met, coupled enzyme system; conditions: 200 μM ATP, 10 μM polyGluTyr, 80 nM c-Met, 30° C.
Outline: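 Coupled pyruvate kinase/lactate dehydrogenase NADH assay with 80 nM c-Met, 200 μM ATP, 10 μM polyGluTyr in pH 7.5 HEPES, 1.5% DMSO at 30° C. Compound (0.006–12.5 μM final, 12-point) preincubated 10 min; ATP started reaction, rates read over 10 min; Ki derived from rate versus inhibitor concentration.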

[2] = target: GSK-3β, (AA 1-420) (Homo sapiens, UniProt P49841); test: GSK-3 inhibition assay, coupled enzyme system; conditions: 20 μM ATP, 300 μM peptide, 20 nM GSK-3b, 30° C.; read-out: Ki values (GSK3)
Outline: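 Pyruvate kinase/lactate dehydrogenase-coupled NADH assay with 20 nM enzyme, 20 μM ATP and 300 μM peptide in HEPES pH 7.5, 1.5% DMSO, 30° C. Compound (0.002–30 μM, 12-point) preincubated 10 min before ATP start; rates over 10 min gave Ki.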

[3] = target: KDR (Homo sapiens, UniProt P35968); test: KDR enzyme assay, coupled enzyme assay; conditions: 300 μM ATP, 10 μM poly E4Y, 30 nM KDR, 37° C.
Protocol: Compounds were screened for their ability to inhibit KDR using a standard coupled enzyme assay (Fox et al., Protein Sci., (1998) 7, 2249). Assays were carried out in a mixture of 200 mM HEPES 7.5, 10 mM MgCl2, 25 mM NaCl, 1 mM DTT and 1.5% DMSO. Final substrate concentrations in the assay were 300 μM ATP (Sigma Chemicals) and 10 μM poly E4Y (Sigma). Assays were carried out at 37° C. and 30 nM KDR. Final concentrations of the components of the coupled enzyme system were 2.5 mM phosphoenolpyruvate, 200 μM NADH, 30 μg/ML pyruvate kinase and 10 μg/ml lactate dehydrogenase.
An assay stock buffer solution was prepared containing all of the reagents listed above, with the exception of ATP and the test compound of interest. 177 μl of the stock solution was placed in a 96 well plate followed by addition of 3 μl of 2 mM DMSO stock containing the test compound (final compound concentration 30 μM). The plate was preincubated for about 10 minutes at 37° C. and the reaction initiated by addition of 20 μl of ATP (final concentration 300 μM). Rates of reaction were obtained using a Molecular Devices plate reader (Sunnyvale, Calif.) over a 5 minute read time at 37° C.

c-Met, sequence (P08581 25-1390): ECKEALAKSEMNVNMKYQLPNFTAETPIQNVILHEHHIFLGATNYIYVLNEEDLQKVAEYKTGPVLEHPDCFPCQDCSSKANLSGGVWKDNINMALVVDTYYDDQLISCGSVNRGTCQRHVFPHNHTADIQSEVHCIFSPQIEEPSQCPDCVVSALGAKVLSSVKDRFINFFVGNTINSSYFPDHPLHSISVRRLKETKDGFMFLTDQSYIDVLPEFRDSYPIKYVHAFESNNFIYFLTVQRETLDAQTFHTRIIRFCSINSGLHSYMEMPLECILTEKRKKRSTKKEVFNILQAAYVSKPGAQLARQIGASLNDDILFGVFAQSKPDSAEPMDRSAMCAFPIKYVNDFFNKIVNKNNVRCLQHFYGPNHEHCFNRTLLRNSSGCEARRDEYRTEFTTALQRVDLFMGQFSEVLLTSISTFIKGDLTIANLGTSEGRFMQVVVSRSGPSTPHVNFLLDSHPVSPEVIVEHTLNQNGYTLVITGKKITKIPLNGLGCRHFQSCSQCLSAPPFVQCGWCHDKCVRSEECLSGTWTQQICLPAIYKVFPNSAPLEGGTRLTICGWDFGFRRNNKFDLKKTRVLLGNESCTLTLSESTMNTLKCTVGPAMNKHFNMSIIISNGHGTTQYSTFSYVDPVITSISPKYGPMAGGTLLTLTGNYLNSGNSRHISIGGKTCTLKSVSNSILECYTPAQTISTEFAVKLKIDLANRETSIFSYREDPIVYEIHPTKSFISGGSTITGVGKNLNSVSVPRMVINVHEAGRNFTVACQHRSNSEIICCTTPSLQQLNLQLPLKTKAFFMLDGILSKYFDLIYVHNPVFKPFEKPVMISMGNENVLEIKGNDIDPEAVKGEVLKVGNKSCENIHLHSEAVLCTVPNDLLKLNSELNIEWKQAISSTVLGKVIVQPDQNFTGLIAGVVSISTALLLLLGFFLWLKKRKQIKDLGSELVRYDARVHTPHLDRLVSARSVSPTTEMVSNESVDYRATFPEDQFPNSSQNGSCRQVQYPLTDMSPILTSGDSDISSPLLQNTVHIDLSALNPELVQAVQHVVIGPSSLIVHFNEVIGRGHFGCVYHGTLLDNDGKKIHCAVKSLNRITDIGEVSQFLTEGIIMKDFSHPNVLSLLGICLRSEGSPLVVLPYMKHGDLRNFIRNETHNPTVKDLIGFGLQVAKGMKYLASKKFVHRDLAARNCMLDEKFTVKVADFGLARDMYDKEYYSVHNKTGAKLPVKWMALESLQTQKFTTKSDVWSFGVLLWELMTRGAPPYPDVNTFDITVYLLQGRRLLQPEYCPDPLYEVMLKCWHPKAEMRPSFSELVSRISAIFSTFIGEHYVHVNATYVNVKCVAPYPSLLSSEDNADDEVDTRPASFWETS
GSK-3β, (AA 1-420), sequence (P49841 whole entry, the tested form may be a part): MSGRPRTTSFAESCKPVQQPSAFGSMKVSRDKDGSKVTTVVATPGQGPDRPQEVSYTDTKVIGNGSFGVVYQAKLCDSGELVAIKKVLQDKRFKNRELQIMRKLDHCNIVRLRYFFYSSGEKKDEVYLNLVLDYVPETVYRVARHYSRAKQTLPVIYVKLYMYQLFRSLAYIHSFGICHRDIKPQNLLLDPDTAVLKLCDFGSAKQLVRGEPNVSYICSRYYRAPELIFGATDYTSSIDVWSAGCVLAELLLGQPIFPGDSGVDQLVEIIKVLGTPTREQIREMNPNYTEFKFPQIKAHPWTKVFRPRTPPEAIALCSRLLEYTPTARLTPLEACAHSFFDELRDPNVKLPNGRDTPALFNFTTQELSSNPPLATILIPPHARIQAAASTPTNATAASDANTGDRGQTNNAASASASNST
KDR, sequence (P35968 20-1356): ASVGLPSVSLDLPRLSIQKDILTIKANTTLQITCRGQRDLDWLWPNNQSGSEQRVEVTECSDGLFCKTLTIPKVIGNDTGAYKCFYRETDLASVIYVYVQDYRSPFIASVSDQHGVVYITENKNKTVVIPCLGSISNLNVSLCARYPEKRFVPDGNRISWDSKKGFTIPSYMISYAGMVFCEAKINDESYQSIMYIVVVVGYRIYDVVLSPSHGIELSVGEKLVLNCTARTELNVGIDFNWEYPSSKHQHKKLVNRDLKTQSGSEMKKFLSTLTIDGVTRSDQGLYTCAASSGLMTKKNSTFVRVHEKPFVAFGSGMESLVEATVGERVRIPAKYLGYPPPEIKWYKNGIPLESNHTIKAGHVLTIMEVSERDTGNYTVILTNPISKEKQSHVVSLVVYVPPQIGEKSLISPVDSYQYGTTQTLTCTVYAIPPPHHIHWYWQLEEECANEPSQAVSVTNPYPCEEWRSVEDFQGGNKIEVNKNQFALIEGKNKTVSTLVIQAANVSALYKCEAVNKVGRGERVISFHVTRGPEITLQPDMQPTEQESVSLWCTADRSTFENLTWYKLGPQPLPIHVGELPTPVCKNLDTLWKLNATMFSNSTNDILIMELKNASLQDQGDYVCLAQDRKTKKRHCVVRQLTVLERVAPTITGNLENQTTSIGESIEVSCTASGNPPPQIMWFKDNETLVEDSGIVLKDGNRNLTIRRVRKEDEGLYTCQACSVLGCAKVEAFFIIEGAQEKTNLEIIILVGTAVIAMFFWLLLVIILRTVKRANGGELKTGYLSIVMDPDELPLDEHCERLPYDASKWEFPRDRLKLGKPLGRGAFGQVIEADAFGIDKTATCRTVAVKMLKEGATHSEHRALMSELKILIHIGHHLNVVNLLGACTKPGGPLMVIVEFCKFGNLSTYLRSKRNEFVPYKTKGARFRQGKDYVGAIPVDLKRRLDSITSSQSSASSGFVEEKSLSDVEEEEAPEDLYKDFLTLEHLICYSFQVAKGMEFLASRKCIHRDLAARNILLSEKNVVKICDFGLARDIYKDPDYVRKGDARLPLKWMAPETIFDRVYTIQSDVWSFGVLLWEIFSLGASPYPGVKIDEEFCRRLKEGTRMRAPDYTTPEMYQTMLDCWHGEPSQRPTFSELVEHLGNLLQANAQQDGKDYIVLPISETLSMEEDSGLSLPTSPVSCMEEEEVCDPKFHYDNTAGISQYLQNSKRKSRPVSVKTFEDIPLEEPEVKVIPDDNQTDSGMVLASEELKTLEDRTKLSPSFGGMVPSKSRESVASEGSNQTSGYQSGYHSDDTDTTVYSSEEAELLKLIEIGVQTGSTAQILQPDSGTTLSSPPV

Structure (SMILES)	pKi [1]	pKi [2]	pKi [3]
CN1CCCN(c2ccc(-c3cnc4[nH]cc(-c5nncn5-c5cccc(F)c5F)c4c3)cn2)CC1 [Compound 117, 3-[4-(2,3-Difluoro-phenyl)-4H-[1,2,4]triazol-3-yl]-5-[6-(4-methyl-[1,4]diazepan-1-yl)-pyridin-3-yl]-1H-pyrrolo [2,3-b]-pyridine]	> 6.70	6.00 to 6.70	6.00 to 6.70
Fc1cccc(-c2cnoc2-c2c[nH]c3ncc(-c4ccccc4)cc23)c1F [Compound 58, 3-[4-(2,3-Difluoro-phenyl)-isoxazol-5-yl]-5-phenyl-1H-pyrrolo[2,3-b]pyridine]	> 6.70	6.00 to 6.70	> 6.70
CN1CCN(c2ccc(-c3cnc4[nH]cc(-c5nncn5-c5cccc(F)c5F)c4c3)cc2)CC1 [Compound 110, 3-[4-(2,3-Difluoro-phenyl)-4H-[1,2,4]triazol-3-yl]-5-[4-(4-methyl-piperazin-1-yl)-phenyl]-1H-pyrrolo[2,3-b]pyridine]	> 6.70	6.00 to 6.70	6.00 to 6.70
Nc1cccc(-c2cnc3[nH]cc(-c4oncc4-c4cccc(F)c4F)c3c2)c1 [Compound 86, 3-{3-[4-(2,3-Difluoro-phenyl)-isoxazol-5-yl]-1H-pyrrolo [2,3-b]pyridin-5-yl}-phenylamine]	> 6.70	> 6.70	> 6.70 and 4.90 to 6.00
OC1CCN(c2ccc(-c3cnc4[nH]cc(-c5nncn5-c5cccc(F)c5F)c4c3)cn2)CC1 [Compound 116, 5′-{3-[4-(2,3-Difluoro-phenyl)-4H-[1,2,4]triazol-3-yl]-1H-pyrrolo[2,3-b]pyridin-5-yl}-3,4,5,6-tetrahydro-2H-[1,2′]bi-pyridinyl-4-ol]	> 6.70	6.00 to 6.70	6.00 to 6.70
CN(C)C(=O)c1ccc(-c2cnc3[nH]cc(-c4oncc4-c4cccc(F)c4F)c3c2)nc1 [Compound 79, 6-{3-[4-(2,3-Difluoro-phenyl)-isoxazol-5-yl]-1H-pyrrolo [2,3-b]pyridin-5-yl}-N,N-dimethyl-nicotinamide]	> 6.70	6.00 to 6.70	> 6.70
Fc1ccc(-c2cnoc2-c2c[nH]c3ncccc23)c(F)c1F [Compound 40, 3-[4-(2,3,4-Trifluoro-phenyl)-isoxazol-5-yl]-1H-pyrrolo [2,3-b]pyridine]	> 6.70	4.90 to 6.00	6.00 to 6.70
CS(=O)(=O)NC1CC=C(c2cnc3[nH]cc(-c4oncc4-c4cccc(F)c4F)c3c2)CC1 (stereo not drawn) [Compound 140, N-(4-{3-[4-(2,3-Difluoro-phenyl)-isoxazol-5-yl]-1H-pyrrolo[2,3-b]pyridin-5-yl}-cyclohex-3-enyl)-methanesulfonamide]	> 6.70	> 6.70	> 6.70
CN(C)Cc1ccnc(-c2cnc3[nH]cc(-c4oncc4-c4cccc(F)c4F)c3c2)c1 [Compound 82, (2-{3-[4-(2,3-Difluoro-phenyl)-isoxazol-5-yl]-1H-pyrrolo[2,3-b]pyridin-5-yl}-pyridin-4-ylmethyl)-dimethyl-amine]	> 6.70	> 6.70	> 6.70
Fc1cccc(-c2cnoc2-c2c[nH]c3ncc(-c4c[nH]cn4)cc23)c1F [Compound 76, 3-[4-(2,3-Difluoro-phenyl)-isoxazol-5-yl]-5-(3H-imidazol-4-yl)-1H-pyrrolo[2,3-b]pyridine]	> 6.70	6.00 to 6.70	6.00 to 6.70
Cc1noc(-c2c[nH]c3ncc(-c4ccc(N5CCN(C)CC5)cc4)cc23)c1-c1cccc(F)c1F [Compound 135, 3-[4-(2,3-Difluoro-phenyl)-3-methyl-isoxazol-5-yl]-5-[4-(4-methyl-piperazin-1-yl)-phenyl]-1H-pyrrolo[2,3-b]pyridine]	> 6.70	> 6.70	6.00 to 6.70
Clc1cccc(-c2cnoc2-c2c[nH]c3ncc(-c4cccnc4)cc23)c1Cl [Compound 99, 3-[4-(2,3-Dichloro-phenyl)-isoxazol-5-yl]-5-pyridin-3-yl-1H-pyrrolo[2,3-b]pyridine]	> 6.70	> 6.70	> 6.70
C=Cc1cnc2[nH]cc(-c3oncc3-c3cccc(F)c3F)c2c1 [Compound 66, 3-[4-(2,3-Difluoro-phenyl)-isoxazol-5-yl]-5-vinyl-1H-pyrrolo[2,3-b]pyridine]	> 6.70	6.00 to 6.70	> 6.70
Fc1cccc(-c2cnoc2-c2c[nH]c3ncc(C4CCNCC4)cc23)c1F [Compound 62, 3-[4-(2,3-Difluoro-phenyl)-isoxazol-5-yl]-5-piperidin-4-yl-1H-pyrrolo[2,3-b]pyridine]	> 6.70	6.00 to 6.70	4.90 to 6.00
CN(C)c1ccc(-c2cnc3[nH]cc(-c4oncc4-c4cccc(F)c4F)c3c2)cc1 [Compound 88, (4-{3-[4-(2,3-Difluoro-phenyl)-isoxazol-5-yl]-1H-pyrrolo[2,3-b]pyridin-5-yl}-phenyl)-dimethyl-amine]	> 6.70	6.00 to 6.70	> 6.70
Cc1noc(-c2c[nH]c3ncccc23)c1-c1cccc(F)c1F [Compound 134, 3-[4-(2,3-Difluoro-phenyl)-3-methyl-isoxazol-5-yl]-1H-pyrrolo[2,3-b]pyridine]	6.00 to 6.70	6.00 to 6.70	4.90 to 6.00
Fc1cccc(-c2cnoc2-c2c[nH]c3ncc(Br)cc23)c1F [Compound 37, 5-Bromo-3-[4-(2,3-difluoro-phenyl)-isoxazol-5-yl]-1H-pyrrolo[2,3-b]pyridine]	> 6.70	6.00 to 6.70	6.00 to 6.70
CN(C)CC#Cc1cnc2[nH]cc(-c3oncc3-c3cccc(F)c3F)c2c1 [Compound 53, (3-{3-[4-(2,3-Difluoro-phenyl)-isoxazol-5-yl]-1H-pyrrolo[2,3-b]pyridin-5-yl}-prop-2-ynyl)-dimethyl-amine]	> 6.70	6.00 to 6.70	6.00 to 6.70
Fc1cccc(-c2cnoc2-c2c[nH]c3ncc(-c4ccc(CN5CCOCC5)cc4)cc23)c1F [Compound 92, 3-[4-(2,3-Difluoro-phenyl)-isoxazol-5-yl]-5-(4-morpholin-4-ylmethyl-phenyl)-1H-pyrrolo[2,3-b]pyridine]	> 6.70	6.00 to 6.70	6.00 to 6.70
CC(=O)N1CCC(c2cnc3[nH]cc(-c4oncc4-c4cccc(F)c4F)c3c2)CC1 [Compound 63, 1-(4-{3-[4-(2,3-Difluoro-phenyl)-isoxazol-5-yl]-1H-pyrrolo[2,3-b]pyridin-5-yl}-piperidin-1-yl)-ethanone]	> 6.70	> 6.70	4.90 to 6.00
Nc1ccc(-c2cnc3[nH]cc(-c4oncc4-c4cccc(F)c4F)c3c2)cc1 [Compound 90, 4-{3-[4-(2,3-Difluoro-phenyl)-isoxazol-5-yl]-1H-pyrrolo [2,3-b]pyridin-5-yl}-phenylamine]	> 6.70	> 6.70	> 6.70
CN(C)Cc1cc(Cl)nc(-c2cnc3[nH]cc(-c4oncc4-c4cccc(F)c4F)c3c2)c1 [Compound 81, (2-Chloro-6-{3-[4-(2,3-difluoro-phenyl)-isoxazol-5-yl]-1H-pyrrolo[2,3-b]pyridin-5-yl}-pyridin-4-ylmethyl)-dimethyl-amine]	> 6.70	6.00 to 6.70	> 6.70
Fc1cccc(-c2cnoc2-c2c[nH]c3ncc(-c4cncnc4)cc23)c1F [Compound 85, 3-[4-(2,3-Difluoro-phenyl)-isoxazol-5-yl]-5-pyrimidin-5-yl-1H-pyrrolo[2,3-b]pyridine]	> 6.70	4.90 to 6.00	4.90 to 6.00
COc1cnc2[nH]cc(-c3oncc3-c3cccc(F)c3F)c2c1 [Compound 38, 3-[4-(2,3-Difluoro-phenyl)-isoxazol-5-yl]-5-methoxy-1H-pyrrolo[2,3-b]pyridine]	> 6.70	6.00 to 6.70	6.00 to 6.70
Fc1cccc(-n2cnnc2-c2c[nH]c3ncc(-c4ccc(N5CCCC5)nc4)cc23)c1F [Compound 118, 3-[4-(2,3-Difluoro-phenyl)-4H-[1,2,4]triazol-3-yl]-5-(6-pyrrolidin-1-yl-pyridin-3-yl)-1H-pyrrolo[2,3-b]pyridine]	> 6.70	6.00 to 6.70	6.00 to 6.70
Fc1cccc(-c2cnoc2-c2c[nH]c3ncc(-c4ccc(CN5CCCC5)cc4)cc23)c1F [Compound 93, 3-[4-(2,3-Difluoro-phenyl)-isoxazol-5-yl]-5-(4-pyrrolidin-1-ylmethyl-phenyl)-1H-pyrrolo[2,3-b]pyridine]	> 6.70	6.00 to 6.70	> 6.70

— patent publication US7446199B2, “Compositions useful as inhibitors of protein kinases” (Vertex Pharmaceuticals Incorporated, priority 2003, dated 2008)
